These are literature values, as cited in PMC11316111, “Mechanism of allosteric inhibition of human p97/VCP ATPase and its disease mutant by triazole inhibitors” (Communications Chemistry, 2024).

This data set addresses T1, wild-type p97 (p97^WT) (Homo sapiens, UniProt P55072).
T1 construct: made in house
Also noted: method as in PMID 26822609. The settings on record: read-out: IC50 (p97 ATPase); cited from earlier work.

T1 sequence (P55072 whole entry): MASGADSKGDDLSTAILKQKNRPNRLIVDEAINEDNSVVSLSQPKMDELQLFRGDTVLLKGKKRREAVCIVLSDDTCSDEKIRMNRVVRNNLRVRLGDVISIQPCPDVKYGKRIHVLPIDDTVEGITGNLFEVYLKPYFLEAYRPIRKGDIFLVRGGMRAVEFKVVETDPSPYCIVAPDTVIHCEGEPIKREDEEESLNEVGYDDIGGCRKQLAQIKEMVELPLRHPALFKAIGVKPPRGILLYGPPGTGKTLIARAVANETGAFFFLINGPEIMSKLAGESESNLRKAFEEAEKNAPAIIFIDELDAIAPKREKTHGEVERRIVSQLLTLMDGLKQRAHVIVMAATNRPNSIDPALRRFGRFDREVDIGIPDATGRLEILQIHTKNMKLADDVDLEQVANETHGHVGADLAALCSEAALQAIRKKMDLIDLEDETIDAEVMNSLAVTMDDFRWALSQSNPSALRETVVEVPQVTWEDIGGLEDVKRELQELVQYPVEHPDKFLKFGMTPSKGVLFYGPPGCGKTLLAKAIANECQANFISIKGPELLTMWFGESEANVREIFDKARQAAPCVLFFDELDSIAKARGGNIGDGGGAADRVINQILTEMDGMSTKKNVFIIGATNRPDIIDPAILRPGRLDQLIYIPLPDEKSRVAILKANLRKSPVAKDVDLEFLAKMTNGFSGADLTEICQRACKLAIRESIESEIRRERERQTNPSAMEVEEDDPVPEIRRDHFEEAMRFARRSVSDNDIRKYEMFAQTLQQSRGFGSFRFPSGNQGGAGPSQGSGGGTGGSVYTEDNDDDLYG

As a reminder, the IC50 is the concentration at which inhibition is half-maximal. For `CC(C)N1CCN(CCNC2CCN(c3cccc(-c4cc5cc(F)ccc5[nH]4)c3)CC2)CC1` [UPCDC30245], the half-maximal inhibitory concentration (IC50) was 0.027 µM.
